# Legend:
# [1] = Unbound fraction in po dosed C57BL/6J mouse plasma by LC-MS/MS analysis; assay type: ADME, organism-based
# [2] = species: Homo sapiens; test: Inhibition of p70S6K (unknown origin) at 0.078 uM relative to control
# [3] = target: T1, Serine/threonine-protein kinase 3 (Homo sapiens) (UniProt Q13188); test: Inhibition of MST2 (unknown origin) at 0.078 uM relative to control
# T1 sequence (whole entry): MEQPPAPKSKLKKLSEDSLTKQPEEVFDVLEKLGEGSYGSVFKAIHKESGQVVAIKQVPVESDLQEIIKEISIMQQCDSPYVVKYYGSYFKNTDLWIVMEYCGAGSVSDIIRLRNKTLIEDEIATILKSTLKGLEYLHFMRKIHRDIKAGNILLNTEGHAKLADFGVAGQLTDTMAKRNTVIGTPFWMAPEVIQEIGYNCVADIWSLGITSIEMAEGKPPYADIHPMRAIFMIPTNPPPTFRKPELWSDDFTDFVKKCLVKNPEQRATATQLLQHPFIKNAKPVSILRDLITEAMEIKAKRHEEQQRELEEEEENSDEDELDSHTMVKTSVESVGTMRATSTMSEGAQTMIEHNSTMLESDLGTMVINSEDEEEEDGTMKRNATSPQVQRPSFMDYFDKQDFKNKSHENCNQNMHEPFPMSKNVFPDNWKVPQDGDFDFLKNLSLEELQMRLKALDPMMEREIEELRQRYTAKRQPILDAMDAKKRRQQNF
# [4] = target: Ribosomal protein S6 kinase alpha-6 (Homo sapiens) (UniProt Q9UK32); test: Inhibition of RSK4 (unknown origin) at 0.49 uM relative to control
# [5] = target: Homeodomain-interacting protein kinase 4 (Homo sapiens) (UniProt Q8NE63); test: Inhibition of HIPK4 (unknown origin) at 0.49 uM relative to control
# [6] = target: Inhibitor of nuclear factor kappa-B kinase subunit beta (Homo sapiens) (UniProt O14920); test: Inhibition of IKK-beta (unknown origin) at 0.49 uM relative to control
# [7] = target: Homeodomain-interacting protein kinase 1 (Homo sapiens) (UniProt Q86Z02); test: Inhibition of HIPK1 (unknown origin) at 0.49 uM relative to control
# [8] = target: Ribosomal protein S6 kinase alpha-3 (Homo sapiens) (UniProt P51812); test: Inhibition of RSK2 (unknown origin) at 0.49 uM relative to control
# [9] = target: Epidermal growth factor receptor (Homo sapiens) (UniProt P00533); test: Inhibition of EGFR (unknown origin) at 0.49 uM relative to control
# [10] = target: Inhibitor of nuclear factor kappa-B kinase subunit epsilon (Homo sapiens) (UniProt Q14164); test: Inhibition of IKBKE (unknown origin) at 0.49 uM relative to control
# [11] = target: RAF proto-oncogene serine/threonine-protein kinase (Homo sapiens) (UniProt P04049); test: Inhibition of c-Raf (unknown origin) at 0.49 uM relative to control
# [12] = target: Ribosomal protein S6 kinase alpha-4 (Homo sapiens) (UniProt O75676); test: Inhibition of MSK2 (unknown origin) at 0.45 uM relative to control
# [13] = tested on: Hepatocyte growth factor receptor (Homo sapiens), P08581 [M1250T]; test: Inhibition of MET M1250T mutant (unknown origin) at 0.45 uM relative to control
# [14] = target: T2, cGMP-dependent protein kinase 1 (Homo sapiens) (UniProt Q13976); test: Inhibition of PKG-alpha (unknown origin) at 0.45 uM relative to control
# T2 sequence (whole entry): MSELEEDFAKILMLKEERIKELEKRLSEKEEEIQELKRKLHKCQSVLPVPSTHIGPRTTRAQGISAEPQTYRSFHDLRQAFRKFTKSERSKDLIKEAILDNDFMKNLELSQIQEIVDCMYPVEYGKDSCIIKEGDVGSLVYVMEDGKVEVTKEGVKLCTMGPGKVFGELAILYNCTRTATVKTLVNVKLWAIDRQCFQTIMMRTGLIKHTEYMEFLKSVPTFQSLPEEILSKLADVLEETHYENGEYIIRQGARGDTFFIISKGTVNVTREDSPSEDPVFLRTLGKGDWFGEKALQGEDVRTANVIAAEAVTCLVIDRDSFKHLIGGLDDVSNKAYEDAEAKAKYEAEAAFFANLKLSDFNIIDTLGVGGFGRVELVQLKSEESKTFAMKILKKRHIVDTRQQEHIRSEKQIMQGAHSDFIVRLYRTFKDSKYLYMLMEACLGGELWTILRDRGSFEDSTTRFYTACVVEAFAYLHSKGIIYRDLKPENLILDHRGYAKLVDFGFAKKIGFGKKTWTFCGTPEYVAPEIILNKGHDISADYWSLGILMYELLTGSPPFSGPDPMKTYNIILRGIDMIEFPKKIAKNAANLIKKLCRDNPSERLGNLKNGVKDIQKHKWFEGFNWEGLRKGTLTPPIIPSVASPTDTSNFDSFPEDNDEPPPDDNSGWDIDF
# [15] = target: Serine/threonine-protein kinase 10 (Homo sapiens) (UniProt O94804); test: Inhibition of LOK (unknown origin) at 0.45 uM relative to control
# [16] = target: Serine/threonine-protein kinase Nek6 (Homo sapiens) (UniProt Q9HC98); test: Inhibition of NEK6 (unknown origin) at 0.45 uM relative to control
# [17] = target: Glycogen synthase kinase-3 alpha (Homo sapiens) (UniProt P49840); test: Inhibition of GSK3-alpha (unknown origin) at 0.45 uM relative to control
# [18] = target: Cytoplasmic tyrosine-protein kinase BMX (Homo sapiens) (UniProt P51813); test: Inhibition of BMX (unknown origin) at 0.45 uM relative to control
# [19] = target: Misshapen-like kinase 1 (Homo sapiens) (UniProt Q8N4C8); test: Inhibition of MINK (unknown origin) at 0.45 uM relative to control
# [20] = target: Tyrosine-protein kinase Blk (Homo sapiens) (UniProt P51451); test: Inhibition of BLK (unknown origin) at 0.45 uM relative to control
# [21] = target: Tyrosine-protein kinase Srms (Homo sapiens) (UniProt Q9H3Y6); test: Inhibition of SRM (SRMS) (unknown origin) at 0.45 uM relative to control
# [22] = tested on: Receptor-type tyrosine-protein kinase FLT3 (Homo sapiens), P36888 [D835Y]; test: Inhibition of Flt3 D835Y mutant (unknown origin) at 0.45 uM relative to control
# [23] = target: Protein kinase C iota type (Homo sapiens) (UniProt P41743); test: Inhibition of PKC-iota (unknown origin) at 0.45 uM relative to control
# [24] = target: Vascular endothelial growth factor receptor 1 (Homo sapiens) (UniProt P17948); test: Inhibition of FLT1 (unknown origin) at 0.45 uM relative to control
# [25] = target: Hepatocyte growth factor receptor (Homo sapiens) (UniProt P08581); test: Inhibition of MET (unknown origin) at 0.45 uM relative to control
# [26] = target: Casein kinase I isoform gamma-2 (Homo sapiens) (UniProt P78368); test: Inhibition of Casein kinase 1g2 (unknown origin) at 0.45 uM relative to control
# Sequence of Serine/threonine-protein kinase 10 (Homo sapiens) (O94804 whole entry, looked up): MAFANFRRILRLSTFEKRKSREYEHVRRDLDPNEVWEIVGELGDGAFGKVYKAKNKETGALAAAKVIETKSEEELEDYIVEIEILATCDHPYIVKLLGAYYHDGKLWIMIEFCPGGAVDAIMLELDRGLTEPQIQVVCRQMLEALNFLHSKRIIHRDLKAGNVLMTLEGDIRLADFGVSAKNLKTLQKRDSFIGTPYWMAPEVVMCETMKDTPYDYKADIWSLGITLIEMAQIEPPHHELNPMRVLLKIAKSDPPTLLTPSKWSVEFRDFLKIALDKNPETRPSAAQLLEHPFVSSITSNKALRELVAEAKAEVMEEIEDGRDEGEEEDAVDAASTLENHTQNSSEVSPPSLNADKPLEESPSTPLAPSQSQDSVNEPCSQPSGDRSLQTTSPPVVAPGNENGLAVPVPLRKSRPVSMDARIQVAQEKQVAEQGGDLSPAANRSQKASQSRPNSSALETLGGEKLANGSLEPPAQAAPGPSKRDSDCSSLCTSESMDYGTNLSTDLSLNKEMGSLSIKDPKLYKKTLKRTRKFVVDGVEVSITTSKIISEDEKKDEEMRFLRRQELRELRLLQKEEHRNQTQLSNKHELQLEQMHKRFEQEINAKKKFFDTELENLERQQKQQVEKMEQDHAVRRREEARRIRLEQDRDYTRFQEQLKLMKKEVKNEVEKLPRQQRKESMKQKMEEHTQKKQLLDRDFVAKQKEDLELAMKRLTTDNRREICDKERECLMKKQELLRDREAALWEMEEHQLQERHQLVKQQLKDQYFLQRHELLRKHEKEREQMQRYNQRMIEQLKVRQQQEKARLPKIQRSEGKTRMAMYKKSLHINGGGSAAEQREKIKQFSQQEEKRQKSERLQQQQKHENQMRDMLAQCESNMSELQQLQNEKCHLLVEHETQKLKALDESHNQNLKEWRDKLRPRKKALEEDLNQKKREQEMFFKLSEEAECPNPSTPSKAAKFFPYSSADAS
# Sequence of Protein kinase C iota type (Homo sapiens) (P41743 whole entry): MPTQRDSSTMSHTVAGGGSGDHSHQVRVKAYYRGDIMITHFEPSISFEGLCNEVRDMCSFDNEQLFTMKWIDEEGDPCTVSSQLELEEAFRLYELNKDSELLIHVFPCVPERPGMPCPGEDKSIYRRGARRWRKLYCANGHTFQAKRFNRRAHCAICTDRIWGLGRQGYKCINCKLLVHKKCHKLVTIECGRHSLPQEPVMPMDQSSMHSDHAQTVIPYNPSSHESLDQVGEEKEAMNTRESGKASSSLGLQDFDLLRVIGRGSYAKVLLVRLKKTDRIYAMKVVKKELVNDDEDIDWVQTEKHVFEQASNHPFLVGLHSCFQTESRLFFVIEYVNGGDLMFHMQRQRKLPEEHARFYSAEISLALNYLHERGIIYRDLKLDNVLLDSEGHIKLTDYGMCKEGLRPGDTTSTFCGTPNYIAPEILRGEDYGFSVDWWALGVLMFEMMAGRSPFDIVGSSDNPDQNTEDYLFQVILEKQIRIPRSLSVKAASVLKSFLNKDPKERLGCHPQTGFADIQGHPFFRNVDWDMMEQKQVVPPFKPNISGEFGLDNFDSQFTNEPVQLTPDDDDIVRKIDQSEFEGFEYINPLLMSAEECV
# Sequence of Misshapen-like kinase 1 (Homo sapiens) (Q8N4C8 whole entry, looked up): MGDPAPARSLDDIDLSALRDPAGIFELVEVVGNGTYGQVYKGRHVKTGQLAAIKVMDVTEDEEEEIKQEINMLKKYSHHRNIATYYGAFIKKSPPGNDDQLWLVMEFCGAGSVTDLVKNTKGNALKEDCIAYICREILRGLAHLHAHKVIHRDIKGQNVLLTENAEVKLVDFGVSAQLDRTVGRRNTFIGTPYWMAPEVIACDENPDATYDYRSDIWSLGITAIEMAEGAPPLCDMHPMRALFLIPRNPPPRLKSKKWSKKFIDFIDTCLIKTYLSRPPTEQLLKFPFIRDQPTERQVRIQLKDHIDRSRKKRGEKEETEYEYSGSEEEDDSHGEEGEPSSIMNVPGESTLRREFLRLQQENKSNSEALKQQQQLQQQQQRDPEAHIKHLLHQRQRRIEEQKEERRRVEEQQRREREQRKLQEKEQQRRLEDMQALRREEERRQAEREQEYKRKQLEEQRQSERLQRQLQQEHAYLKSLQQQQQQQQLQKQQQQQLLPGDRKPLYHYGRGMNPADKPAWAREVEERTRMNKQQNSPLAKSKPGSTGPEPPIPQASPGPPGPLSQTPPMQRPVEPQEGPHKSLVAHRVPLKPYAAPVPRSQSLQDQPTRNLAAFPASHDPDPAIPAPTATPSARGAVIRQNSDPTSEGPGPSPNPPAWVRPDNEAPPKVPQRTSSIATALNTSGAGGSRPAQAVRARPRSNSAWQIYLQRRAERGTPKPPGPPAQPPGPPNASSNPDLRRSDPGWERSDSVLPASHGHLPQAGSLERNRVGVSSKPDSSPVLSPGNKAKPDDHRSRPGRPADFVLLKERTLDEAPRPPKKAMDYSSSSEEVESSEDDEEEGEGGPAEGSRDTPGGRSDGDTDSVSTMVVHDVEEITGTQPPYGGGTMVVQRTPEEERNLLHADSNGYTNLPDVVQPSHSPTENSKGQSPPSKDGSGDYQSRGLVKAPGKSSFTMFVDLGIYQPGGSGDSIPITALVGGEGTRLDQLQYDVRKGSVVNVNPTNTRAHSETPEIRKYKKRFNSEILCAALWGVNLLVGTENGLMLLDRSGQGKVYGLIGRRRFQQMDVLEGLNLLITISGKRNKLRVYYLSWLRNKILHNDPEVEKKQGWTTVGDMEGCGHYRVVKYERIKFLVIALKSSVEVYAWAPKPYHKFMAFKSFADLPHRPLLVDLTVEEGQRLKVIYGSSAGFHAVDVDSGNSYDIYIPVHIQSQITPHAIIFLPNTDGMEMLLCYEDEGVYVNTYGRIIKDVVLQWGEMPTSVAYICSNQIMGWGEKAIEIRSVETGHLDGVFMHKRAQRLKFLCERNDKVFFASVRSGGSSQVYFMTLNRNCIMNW
# Sequence of RAF proto-oncogene serine/threonine-protein kinase (Homo sapiens) (P04049 whole entry): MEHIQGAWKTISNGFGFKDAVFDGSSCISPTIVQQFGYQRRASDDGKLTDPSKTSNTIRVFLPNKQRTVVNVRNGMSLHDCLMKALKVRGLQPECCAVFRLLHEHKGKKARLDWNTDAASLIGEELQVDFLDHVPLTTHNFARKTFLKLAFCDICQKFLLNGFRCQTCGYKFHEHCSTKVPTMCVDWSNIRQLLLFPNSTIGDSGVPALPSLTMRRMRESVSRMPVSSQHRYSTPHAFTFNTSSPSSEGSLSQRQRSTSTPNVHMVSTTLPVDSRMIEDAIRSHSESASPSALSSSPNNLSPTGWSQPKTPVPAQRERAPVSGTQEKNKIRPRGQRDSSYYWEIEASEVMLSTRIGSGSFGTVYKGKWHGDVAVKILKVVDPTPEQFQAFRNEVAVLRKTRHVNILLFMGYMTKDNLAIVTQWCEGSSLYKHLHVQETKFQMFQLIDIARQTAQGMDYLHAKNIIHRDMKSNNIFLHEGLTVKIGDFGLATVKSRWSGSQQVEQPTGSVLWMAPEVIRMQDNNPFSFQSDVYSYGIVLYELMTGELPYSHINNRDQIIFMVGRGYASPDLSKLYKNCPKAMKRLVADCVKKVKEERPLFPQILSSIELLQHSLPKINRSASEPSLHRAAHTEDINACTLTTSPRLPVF
# Sequence of Cytoplasmic tyrosine-protein kinase BMX (Homo sapiens) (P51813 whole entry): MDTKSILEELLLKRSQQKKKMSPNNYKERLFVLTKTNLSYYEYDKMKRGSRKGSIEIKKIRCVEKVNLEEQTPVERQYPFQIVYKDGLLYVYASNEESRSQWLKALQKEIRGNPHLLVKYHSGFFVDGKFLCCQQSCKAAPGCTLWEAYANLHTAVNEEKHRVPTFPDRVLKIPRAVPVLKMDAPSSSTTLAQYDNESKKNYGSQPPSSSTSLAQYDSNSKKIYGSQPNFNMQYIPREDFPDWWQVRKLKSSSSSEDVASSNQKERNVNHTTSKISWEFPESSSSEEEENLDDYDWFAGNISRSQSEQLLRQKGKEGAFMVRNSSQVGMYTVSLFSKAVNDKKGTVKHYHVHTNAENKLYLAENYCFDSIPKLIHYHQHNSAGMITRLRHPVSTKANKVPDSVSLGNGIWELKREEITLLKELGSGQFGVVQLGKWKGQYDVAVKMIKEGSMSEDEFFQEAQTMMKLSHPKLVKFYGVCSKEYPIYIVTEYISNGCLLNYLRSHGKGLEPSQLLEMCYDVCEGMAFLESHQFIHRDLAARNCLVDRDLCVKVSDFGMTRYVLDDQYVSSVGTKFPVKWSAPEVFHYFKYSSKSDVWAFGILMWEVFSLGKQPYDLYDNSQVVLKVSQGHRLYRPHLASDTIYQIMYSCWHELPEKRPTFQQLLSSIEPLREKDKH
# Sequence of Ribosomal protein S6 kinase alpha-3 (Homo sapiens) (P51812 whole entry): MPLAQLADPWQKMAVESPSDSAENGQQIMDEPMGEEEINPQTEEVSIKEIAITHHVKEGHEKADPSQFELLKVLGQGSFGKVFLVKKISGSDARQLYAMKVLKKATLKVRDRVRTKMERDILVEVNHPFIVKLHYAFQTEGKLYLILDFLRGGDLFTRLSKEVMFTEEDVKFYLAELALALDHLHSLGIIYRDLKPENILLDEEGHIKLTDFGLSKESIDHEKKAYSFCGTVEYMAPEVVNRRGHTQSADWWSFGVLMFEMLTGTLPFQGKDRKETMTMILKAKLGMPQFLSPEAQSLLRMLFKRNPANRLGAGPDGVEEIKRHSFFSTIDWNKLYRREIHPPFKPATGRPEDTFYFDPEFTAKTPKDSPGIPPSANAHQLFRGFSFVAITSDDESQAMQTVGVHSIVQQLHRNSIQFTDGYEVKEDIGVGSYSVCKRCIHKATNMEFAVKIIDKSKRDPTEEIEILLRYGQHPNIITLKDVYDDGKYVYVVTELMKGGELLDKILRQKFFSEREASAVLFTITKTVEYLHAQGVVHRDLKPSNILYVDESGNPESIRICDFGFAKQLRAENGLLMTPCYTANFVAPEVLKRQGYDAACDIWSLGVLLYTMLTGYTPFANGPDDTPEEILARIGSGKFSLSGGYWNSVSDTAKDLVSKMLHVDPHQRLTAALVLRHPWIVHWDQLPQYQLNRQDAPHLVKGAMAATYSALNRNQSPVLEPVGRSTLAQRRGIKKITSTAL
compound,measurement,setting,value
COC(=O)Nc1noc2cc(-c3c(-c4ccccn4)n[nH]c3C)ccc12,fraction unbound,[1],0.17
same,inhibition,[2],4%
same,inhibition,[3],2%
Cc1[nH]nc(C2CC2)c1-c1ccc2c(NC(=O)C3CC3)noc2c1,inhibition,[4],-1.3%
same,inhibition,[5],1.7%
same,inhibition,[6],2.3%
same,inhibition,[7],1.7%
same,inhibition,[8],-2%
same,inhibition,[9],-7.3%
same,inhibition,[10],1.7%
same,inhibition,[11],1%
Cc1n[nH]c(C)c1-c1ccc2c(NC(=O)c3ccc(N4CCN(C)CC4)cc3)n[nH]c2c1,inhibition,[12],-3.3%
same,inhibition,[13],5%
same,inhibition,[14],-1.7%
same,inhibition,[15],9.3%
same,inhibition,[16],3.3%
same,inhibition,[17],-1%
same,inhibition,[18],4.7%
same,inhibition,[19],83.7%
same,inhibition,[20],20%
same,inhibition,[21],9%
same,inhibition,[22],89%
same,inhibition,[23],-6.7%
same,inhibition,[24],12.7%
same,inhibition,[25],5.7%
same,inhibition,[26],0.7%

# — ChEMBL document CHEMBL4052759, “Discovery of DS79182026: A potent orally active hepcidin production inhibitor” (Bioorg Med Chem Lett, 2017)
